According to patent US7022675B2, “Wound healing compositions” (University of Southern California, priority 1997, dated 2006):

What was measured:
rat carotid artery = conditions: cited from earlier work; for reduction of intimal hyperplasia / intimal area: treatment of rats, Pratt et al. 1992; for neointimal formation: similar model, Janiak et al. 1992, CGP 42112 infused perivascularly for 14 days, losartan at low doses
water intake = conditions: injected into the anterior diencephalon in the rat, Fitzsimons 1971; cited from earlier work
blood pressure [1] = conditions: cited from earlier work
blood pressure [2] = conditions: intracerebroventricular infusion in the rat, concentrations 1,000 times higher than that of AII that increased blood pressure, Wright et al. 1989; cited from earlier work
wound tissue = conditions: application to wound tissue; cited from earlier work
[3] = system: full thickness dermal wounds; experiment: in vivo wound healing assay, full thickness dermal wounds in rats; design: species or system Sprague Dawley rats; conditions: 100 μg/wound in 10% carboxymethyl cellulose, daily for first five days; measured days 2, 4, 7 and 9
Description: Analogs of angiotensin II and analogs of angiotensin II fragments having the structures disclosed herein were prepared using an automated peptide synthesizer and methods familiar to those having ordinary skill in the art. Each of the analogs was tested for its ability to accelerate wound healing according to the method described below. Results of procedures were used to determine the extent of wound closure at days 2, 4, 7 and 9, measured as a percentage of a vehicle-treated control wound. Since all of the analogs were not tested during the same experimental procedure, AII was included as a positive control for each group of peptides tested.
Female Sprague Dawley rats, 12 weeks old, were obtained from Simonsen Laboratories, Gilroy, Calif. On the day of surgery, the rats received intramuscular ketamine/rompum anesthesia prior to preparation for surgery. […] At days 2, 4, 7 and 9, the area of the skin wounds was measured under methoxyflurane anesthesia (commercially available as Metofane from Pittman-Moore, Mundelein, Ill.). The area of the wound was determined by (1) tracing the wound shape onto graph paper (1×1 mm squares); (2) cutting out the shape; (3) weighing the paper and comparing the weight with a 1.5×1.5 cm paper cutout; and (4) counting the number of squares. In addition, on days 2 and 4 the area of granulation tissue was similarly determined.

For `Cc1cc(Cn2cnc3c2C[C@@H](C(=O)O)N(C(=O)C(c2ccccc2)c2ccccc2)C3)ccc1N(C)C` [PD 123319], which “reduction of intimal hyperplasia / intimal area” value (rat carotid artery) is on record?
Its value is 73%.

For `CCCCc1nc(Cl)c(CO)n1Cc1ccc(-c2ccccc2-c2nn[nH]n2)cc1` [losartan], which neointimal formation (rat carotid artery) is on record?
The neointimal formation was “ineffective”.

What about the “reduction of intimal hyperplasia / intimal area” value (rat carotid artery) of the same molecule?
The value was 95%.

For “AII(1-4): AII fragment (DRVY; Angiotensin 2; UniProt P01019 25-28, looked up, fragment)”, which “effect on water intake” value (water intake) is on record?
The value was “only a slight effect”.

Which “amount needed for a comparable pressor response, relative to AII” value (blood pressure [1]; Benter et al. 1993) does the source give for “AII(1-7): fragment of AII (DRVYIHP; Angiotensin 2; UniProt P01019 25-31, looked up, fragment)” here?
Its value is “about 10,000 times more AII(1-7) than AII”.

What about the “dose needed for effects on blood pressure (pressor), relative to AII” value (blood pressure [1]; depending upon the model tested and route of administration) of the same molecule?
Its value is 10,000-100,000 times the dose of AII.

What about the “effect on water intake” value (water intake) of the same molecule?
Its value is “completely inactive”.

For “AII(5-8): AII fragment (IHPF; Angiotensin 2; UniProt P01019 29-32, looked up, fragment)”, which “effect on water intake” value (water intake) is on record?
The value was “only a slight effect”.

And the “effect on blood pressure” value (blood pressure [2])?
The value was “minimal effect”.

With “Asp-Arg-Val-Tyr-Ile-His-Pro-Phe (DRVYIHPF) [angiotensin II, positive control]” as the molecule, how does the “rate of wound healing” value (wound tissue) read?
The value was “significantly increases”.

Which neointimal formation (rat carotid artery) does the source give for CGP 42112 here?
Its neointimal formation is “prevented neointimal formation”.

For His-Pro-Phe [AII(6-8)], which “wound closure relative to vehicle-treated control wounds” value [3] is on record?
Its value is “not to be effective”.

Which “wound closure relative to vehicle-treated control wounds” value [3] does the source give for Tyr-Ile-His-Pro-Phe (YIHPF) [AII(4-8)] here?
The value was “not to be effective”.

And the “effect on water intake” value (water intake)?
Its value is “only a slight effect”.

And the “effect on blood pressure” value (blood pressure [2])?
Its value is “minimal effect”.
